Laboratory results: ChEMBL document CHEMBL1201862, “PubChem BioAssay data set” (2004)
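Five compound concentrations were applied to cells in 96-well plates for 48 hours; endpoints were derived by simple linear interpolation of the resulting dose-response curve. GI50 = concentration required for 50% inhibition of growth.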 Active and inactive are the calls of the source. Cut-off read from the data, not from the text of the source: active = GI50 up to about 1.1 µM and inactive = higher.

Experiments:
Test in all cases: NCI anticancer screen, dose series, 48 h
IGROV-1 = tested on: IGROV-1
PC-3 = tested on: PC-3
OVCAR-8 = tested on: OVCAR-8
SF-268 = tested on: SF-268
HL-60 = tested on: HL-60
RXF 393 = tested on: RXF 393
NCI-H226 = tested on: NCI-H226
TK-10 = tested on: TK-10
UO-31 = tested on: UO-31
LOX IMVI = tested on: LOX IMVI
SNB-78 = tested on: SNB-78
HCC 2998 = tested on: HCC 2998
RPMI-8226 = tested on: RPMI-8226
CAKI-1 = tested on: CAKI-1
SK-MEL-5 = tested on: SK-MEL-5
UACC-62 = tested on: UACC-62
COLO 205 = tested on: COLO 205
EKVX = tested on: EKVX
Hs-578T = tested on: Hs-578T
SNB-75 = tested on: SNB-75

CS(=O)(=O)OCCN(CCOS(C)(=O)=O)c1ccc(/C=N/c2ccc3oc(=O)ccc3c2)cc1
GI50 (IGROV-1): 12 µM (inactive)
GI50 (PC-3): 16.6 µM (inactive)
GI50 (OVCAR-8): 6.97 µM (inactive)
GI50 (SF-268): 5.13 µM (inactive)
GI50 (HL-60): 1.71 µM (inactive)
GI50 (RXF 393): 0.553 µM (active)
GI50 (NCI-H226): 3.53 µM (inactive)
GI50 (TK-10): 2.45 µM (inactive)
GI50 (UO-31): 0.959 µM (active)
GI50 (LOX IMVI): 7.23 µM (inactive)
GI50 (SNB-78): 2.12 µM (inactive)
GI50 (HCC 2998): 1.61 µM (inactive)
GI50 (RPMI-8226): 6.53 µM (inactive)
GI50 (CAKI-1): 0.622 µM (active)
GI50 (SK-MEL-5): 7.08 µM (inactive)
GI50 (UACC-62): 1.8 µM (inactive)
GI50 (COLO 205): 2.05 µM (inactive)
GI50 (EKVX): 8.2 µM (inactive)
GI50 (Hs-578T): 28.1 µM (inactive)
GI50 (SNB-75): 2.43 µM (inactive)

ClC(Cl)=C1C(=C(Cl)Cl)C(Cl)(Cl)C1(Cl)Cl
GI50 (IGROV-1): 5.55 µM (inactive)
GI50 (PC-3): 2.31 µM (inactive)
GI50 (OVCAR-8): 1.49 µM (inactive)
GI50 (SF-268): 2.21 µM (inactive)
GI50 (HL-60): 0.625 µM (active)
GI50 (RXF 393): 1.45 µM (inactive)
GI50 (TK-10): 3.52 µM (inactive)
GI50 (UO-31): 3.05 µM (inactive)
GI50 (LOX IMVI): 0.212 µM (active)
GI50 (SNB-78): 2.34 µM (inactive)
GI50 (HCC 2998): 4.78 µM (inactive)
GI50 (RPMI-8226): 0.558 µM (active)
GI50 (CAKI-1): 2.89 µM (inactive)
GI50 (SK-MEL-5): 2.82 µM (inactive)
GI50 (UACC-62): 1.95 µM (inactive)
GI50 (COLO 205): 2.92 µM (inactive)
GI50 (EKVX): 7.52 µM (inactive)
GI50 (Hs-578T): 2.36 µM (inactive)
GI50 (SNB-75): 3.18 µM (inactive)

O=S(=O)(c1ccccc1)N1N=C2c3ccccc3CCC[C@H]2C1c1ccccc1 (stereo partly specified)
GI50 (IGROV-1): > 100 µM (inactive)
GI50 (OVCAR-8): > 100 µM (inactive)
GI50 (SF-268): > 100 µM (inactive)
GI50 (HL-60): > 100 µM (inactive)
GI50 (RXF 393): > 100 µM (inactive)
GI50 (NCI-H226): > 66.1 µM (inactive)
GI50 (TK-10): > 100 µM (inactive)
GI50 (UO-31): > 60.8 µM (inactive)
GI50 (LOX IMVI): > 87.9 µM (inactive)
GI50 (SNB-78): > 100 µM (inactive)
GI50 (HCC 2998): > 100 µM (inactive)
GI50 (RPMI-8226): > 100 µM (inactive)
GI50 (CAKI-1): > 100 µM (inactive)
GI50 (SK-MEL-5): > 100 µM (inactive)
GI50 (UACC-62): > 87.1 µM (inactive)
GI50 (COLO 205): > 100 µM (inactive)
GI50 (EKVX): > 84.3 µM (inactive)
GI50 (SNB-75): > 74.6 µM (inactive)

CSc1nc(NC2OCC(OC(C)=O)C(OC(C)=O)C2OC(C)=O)c(/N=C\C=N\c2c(NC3OCC(OC(C)=O)C(OC(C)=O)C3OC(C)=O)nc(SC)[nH]c2=O)c(=O)[nH]1 (stereo unspecified)
GI50 (IGROV-1): > 93.1 µM (inactive)
GI50 (OVCAR-8): 46.7 µM (inactive)
GI50 (SF-268): > 100 µM (inactive)
GI50 (HL-60): > 100 µM (inactive)
GI50 (RXF 393): 22.8 µM (inactive)
GI50 (NCI-H226): > 52.8 µM (inactive)
GI50 (TK-10): 56.9 µM (inactive)
GI50 (UO-31): > 83 µM (inactive)
GI50 (LOX IMVI): > 100 µM (inactive)
GI50 (SNB-78): > 94.6 µM (inactive)
GI50 (HCC 2998): > 100 µM (inactive)
GI50 (RPMI-8226): > 100 µM (inactive)
GI50 (CAKI-1): > 100 µM (inactive)
GI50 (SK-MEL-5): > 100 µM (inactive)
GI50 (UACC-62): > 100 µM (inactive)
GI50 (COLO 205): > 100 µM (inactive)
GI50 (EKVX): > 86.9 µM (inactive)
GI50 (Hs-578T): 42 µM (inactive)
GI50 (SNB-75): 19.9 µM (inactive)
